Patent publication US7109338B2, “1,2-disubstituted 1,4-dihydro-4-oxoquinoline compounds” (priority 1999, dated 2006)
Converted amounts (≈) assume the structure as drawn.

Key:
[1] = test system: Poliovirus type 1 (Polio 1, Sabin); test: microbe, parasite or virus in culture; type: cell-based
[2] = test system: echovirus type 11 (Echo 11, Gregory); test: In vitro anti-picornavirus activity (MTT), Echo 11; type: cell-based; conditions: HeLa-S3 cells, MTT method, 37° C.
[3] = test system: coxsackievirus type A7 (CA7); test: In vitro anti-picornavirus activity (MTT), CA7; type: cell-based; conditions: HeLa-S3 cells, MTT method, 37° C.
[4] = test system: coxsackievirus type B4 (CB4,JVB); test: In vitro anti-picornavirus activity (MTT), CB4; type: cell-based; conditions: HeLa cells, MTT method, 37° C.
[5] = test system: human rhinovirus type 1B (HRV 1B, B632); test: Anti-rhinovirus activity (MTT), HRV1B; type: cell-based; conditions: HeLa (Ohio strain) cells, MTT method, 33° C.
HRV 2 (HGP) = test: Anti-rhinovirus activity (MTT), HRV2; type: cell-based, human rhinovirus; conditions: HeLa (Ohio strain) cells, MTT method, 33° C.
HRV 89 (41617-Gallo) = test: Anti-rhinovirus activity (MTT), HRV89; type: cell-based, human rhinovirus; conditions: HeLa (Ohio strain) cells, MTT method, 33° C.
HeLa cells = test: Cytotoxicity (MTT, without virus), HeLa; conditions: HeLa, no virus, incubated for 4 days
HeLa-S3 cells = test: Cytotoxicity (MTT, without virus), HeLa-S3; conditions: HeLa-S3, no virus, incubated for 4 days
HeLa (Ohio strain)cells = test: Cytotoxicity (MTT, without virus), HeLa(Ohio); conditions: HeLa(Ohio), no virus, incubated for 4 days

SMILES	IC50 Polio 1 [1] [µg/mL]	IC50 Echo 11 [2] [µg/mL]	IC50 CA7 [3] [µg/mL]	IC50 CB4 [4] [µg/mL]	IC50 HRV1B [5] [µg/mL]	IC50 HRV2 (HRV 2 (HGP)) [µg/mL]	IC50 HRV89 (HRV 89 (41617-Gallo)) [µg/mL]	Cytotoxicity CC50 HeLa (HeLa cells) [µg/mL]	Cytotoxicity CC50 HeLa-S3 (HeLa-S3 cells) [µg/mL]	Cytotoxicity CC50 HeLa(Ohio) (HeLa (Ohio strain)cells) [µg/mL]
CCCc1ccc2c(c1)c(=O)c(C)c(-c1ccccc1)n2CC [Compound A30]	1.0 (≈ 3.27 µM)	0.42 (≈ 1.38 µM)	1.2 (≈ 3.93 µM)	1.8 (≈ 5.89 µM)	1.6 (≈ 5.24 µM)	0.48 (≈ 1.57 µM)	1.0 (≈ 3.27 µM)	6.0	6.5	5.8
CCCOc1ccc2c(c1)c(=O)c(C)c(-c1ccccc1)n2CC [Compound A32]	0.93 (≈ 2.89 µM)	0.40 (≈ 1.24 µM)	1.9 (≈ 5.91 µM)	>3.3	1.0 (≈ 3.11 µM)	0.55 (≈ 1.71 µM)	0.77 (≈ 2.4 µM)	9.7	>10	>10
CCn1c(-c2cccc(F)c2)c(C)c(=O)c2cc(C(C)C)ccc21 [Compound A60]	1.1 (≈ 3.4 µM)	0.52 (≈ 1.61 µM)	2.5 (≈ 7.73 µM)	2.8 (≈ 8.66 µM)	0.59 (≈ 1.82 µM)	0.52 (≈ 1.61 µM)	1.1 (≈ 3.4 µM)	5.3	7.0	5.7
CC(C)c1ccc2c(c1)c(=O)cc(-c1ccc(Cl)c(Cl)c1)n2C [Compound A61]	0.73 (≈ 2.11 µM)	0.40 (≈ 1.16 µM)	>4	>4	0.64 (≈ 1.85 µM)	0.65 (≈ 1.88 µM)	0.38 (≈ 1.1 µM)	>4	>4	>4
CCn1c(-c2cccc(OC)c2)c(C)c(=O)c2cc(C(C)C)ccc21 [Compound A78]	1.3 (≈ 3.88 µM)	1.2 (≈ 3.58 µM)	7.1 (≈ 21.2 µM)	2.6 (≈ 7.75 µM)	5.6 (≈ 16.7 µM)	1.7 (≈ 5.07 µM)	2.9 (≈ 8.65 µM)	>8	>8	>8
COc1ccc(-c2c(C)c(=O)c3cc(C(C)C)ccc3n2C)cc1 [Compound A81]	0.78 (≈ 2.43 µM)	0.52 (≈ 1.62 µM)	0.78 (≈ 2.43 µM)	2.2 (≈ 6.84 µM)	1.7 (≈ 5.29 µM)	0.86 (≈ 2.68 µM)	0.55 (≈ 1.71 µM)	6.5	7.6	5.8
COc1ccc(-c2cc(=O)c3cc(C(C)C)ccc3n2C)cc1C [Compound A97]	0.54 (≈ 1.68 µM)	0.3 (≈ 0.933 µM)	2.1 (≈ 6.53 µM)	1.4 (≈ 4.36 µM)	0.58 (≈ 1.8 µM)	0.61 (≈ 1.9 µM)	0.14 (≈ 0.436 µM)	5.1	>10	4.5
CCn1c(-c2ccc(OC)c(C)c2)cc(=O)c2cc(C(C)C)ccc21 [Compound A98]	0.66 (≈ 1.97 µM)	0.26 (≈ 0.775 µM)	2.9 (≈ 8.65 µM)	1.2 (≈ 3.58 µM)	0.78 (≈ 2.33 µM)	0.42 (≈ 1.25 µM)	0.36 (≈ 1.07 µM)	>4	>4	>4
CCOc1ccc(-c2cc(=O)c3cc(C(C)C)ccc3n2C)cc1C [Compound A99]	0.55 (≈ 1.64 µM)	0.20 (≈ 0.596 µM)	1.8 (≈ 5.37 µM)	1.1 (≈ 3.28 µM)	0.63 (≈ 1.88 µM)	0.50 (≈ 1.49 µM)	0.14 (≈ 0.417 µM)	5.4	5.8	5.7
Cc1cc(-c2cc(=O)c3cc(C(C)C)ccc3n2C)ccc1OC(C)C [Compound A100]	0.57 (≈ 1.63 µM)	0.24 (≈ 0.687 µM)	4.5 (≈ 12.9 µM)	1.4 (≈ 4.01 µM)	0.85 (≈ 2.43 µM)	0.43 (≈ 1.23 µM)	0.20 (≈ 0.572 µM)	>5	>5	>5
CCn1c(-c2ccccc2)c(C)c(=O)c2ccc(C(C)C)cc21 [Compound A122]	1.2 (≈ 3.93 µM)	0.54 (≈ 1.77 µM)	6.9 (≈ 22.6 µM)	5.5 (≈ 18 µM)	0.59 (≈ 1.93 µM)	0.43 (≈ 1.41 µM)	0.35 (≈ 1.15 µM)	>10	>10	>10
CCn1c(-c2ccccc2)c(C)c(=O)c2cc(OCC(C)C)ccc21 [Compound A130]	0.86 (≈ 2.56 µM)	0.32 (≈ 0.954 µM)	0.17 (≈ 0.507 µM)	>4	0.90 (≈ 2.68 µM)	0.65 (≈ 1.94 µM)	0.72 (≈ 2.15 µM)	>4	>4	>4
Cc1c(-c2ccccc2)n(C)c2ccc(NCC(C)C)cc2c1=O [Compound A157]	0.59 (≈ 1.84 µM)	0.27 (≈ 0.843 µM)	3.8 (≈ 11.9 µM)	4.9 (≈ 15.3 µM)	1.0 (≈ 3.12 µM)	0.56 (≈ 1.75 µM)	1.3 (≈ 4.06 µM)	>5	>5	>5
CCn1c(-c2ccccc2)c(C)c(=O)c2cc(NCC(C)C)ccc21.O [Compound A159]	0.51	0.26	2.7	3.0	0.78	0.48	0.73	>5	>5	>5
CCn1c(-c2ccccc2)c(C)c(=O)c2cc(NCC(C)C)ccc21.Cl [Compound A160]	0.55	0.27	2.7	2.9	0.73	0.45	0.78	>5	>5	>5
CCn1c(-c2ccccc2)c(C)c(=O)c2cc(N3CCOCC3)ccc21 [Compound A169]	4.3 (≈ 12.3 µM)	1.1 (≈ 3.16 µM)	>50	18 (≈ 51.7 µM)	8.2 (≈ 23.5 µM)	1.0 (≈ 2.87 µM)	5.4 (≈ 15.5 µM)	>50	>50	>50
CCn1c(-c2ccccc2)c(C)c(=O)c2cc(-c3ccccc3)ccc21 [Compound A171]	0.52 (≈ 1.53 µM)	0.22 (≈ 0.648 µM)	1.9 (≈ 5.6 µM)	2.0 (≈ 5.89 µM)	0.43 (≈ 1.27 µM)	0.76 (≈ 2.24 µM)	0.39 (≈ 1.15 µM)	>2.5	>2.5	>2.5
CCn1c(-c2ccccc2)c(C)c(=O)c2c(Cl)c(OCC(C)C)ccc21 [Compound A179]	0.29 (≈ 0.784 µM)	0.20 (≈ 0.541 µM)	2.4 (≈ 6.49 µM)	1.2 (≈ 3.24 µM)	0.86 (≈ 2.33 µM)	0.87 (≈ 2.35 µM)	0.37 (≈ 1 µM)	>4	>4	>4
CCn1c(-c2cccc(C)c2)c(C)c(=O)c2c(Cl)c(OCC(C)C)ccc21 [Compound A181]	0.39 (≈ 1.02 µM)	0.24 (≈ 0.625 µM)	2.4 (≈ 6.25 µM)	1.8 (≈ 4.69 µM)	1.6 (≈ 4.17 µM)	0.94 (≈ 2.45 µM)	0.46 (≈ 1.2 µM)	>2.5	>2.5	>2.5
Cc1c(-c2ccccc2)n(-c2ccccc2F)c2ccc(C(C)C)cc2c1=O [Compound A321]	–	–	–	–	0.60 (≈ 1.62 µM)	0.056 (≈ 0.151 µM)	0.066 (≈ 0.178 µM)	–	–	>1
